Test results as given in patent US9474790B2, “Stable, protracted GLP-1/glucagon receptor co-agonists for medical use” (Novo Nordisk A/S, priority 2013, dated 2016).
pEC50: −log10 of the molar value. Numbered stars: 1 amine (or outer) side, 2 acyl side, 3 side chain; on linkers, the order of the positions; unused ones are H or OH. Bridge positions count the residues as written; N and C are the ends. Square brackets hold non-standard residues; d marks the D form. Side chains are listed from the residue outwards. Peptide text beside a SMILES is read from it. I, II: the chains in the order shown. * marks the point of attachment. C18 diacid = O=C(O)CCCCCCCCCCCCCCCCC(=O)*; γGlu = O=C(O)[C@H](CCC(=O)[*:2])N[*:1]; AEEA = NCCOCCOCC(=O)O; Aib = CC(C)(N)C(=O)O

Columns and labels:
human glucagon receptor = biological target: T1, human glucagon receptor (Homo sapiens, UniProt P47871); assay: Glucagon receptor potency, CRE luciferase reporter gene assay in BHK cells; format: cell-based; details: BHK cells expressing human glucagon receptor, read-out: EC50 GlucR
T1 construct: expressed in transfected cells; host or cells: BHK cells (parent BHK570, CRE luciferase clone BHK/KZ10-20-48), clone pLJ6'-4-25
Method: The purpose of this example was to test the potency, of the glucagon derivatives of the invention, in vitro. The in vitro potency is the measure of human GLP-1 receptor or glucagon receptor activation, respectively, in a whole cell assay.
In vitro potency was determined by measuring the response of human GLP-1 or glucagon receptor, respectively, in a reporter gene assay. The assay was performed in a stably transfected BHK cell line that expresses either the human GLP-1 receptor or the human glucagon receptor and contains the DNA for the cAMP response element (CRE) coupled to a promoter and the gene for firefly luciferase (CRE luciferase). […] When assay incubation was completed, the luciferase substrate (luciferin) was added and the enzyme converted luciferin to oxyluciferin and produces bioluminescence. The luminescence was measured as the readout for the assay.
The cells used in this assay (clone pLJ6′-4-25) were BHK cells with BHK570 as a parent cell line expressing the CRE luciferase gene (clone BHK/KZ10-20-48) and were established by further transfection with the human glucagon receptor (clone pLJ6′ in pHZ-1 vector).
The cells were cultured at 5% CO2 in DMEM medium with 10% FBS, 1×GlutaMAX, 1 mg/ml G418, 240 nM MTX (methotrexate) and 1% pen/strep (penicillin/streptomycin). They were aliquoted and stored in liquid nitrogen. Before each assay, an aliquot was taken up and washed three times in PBS before being suspended at the desired concentration in assay medium. For 96-well plates the suspension was made to give a final concentration of 5×10EE3 cells/well.
The following chemicals were used in the assay: Pluronic F-68 (10%) (Gibco 2404), ovalbumin (Sigma A5503), DMEM w/o phenol red (Gibco 11880-028), 1 M Hepes (Gibco 15630), Glutamax 100× (Gibco 35050) and steadylite plus (PerkinElmer 6016757).
Assay Medium consisted of DMEM w/o phenol red, 10 mM Hepes, 1× GlutaMAX, 2% Ovalbumin and 0.2% Pluronic F-68.
Cell stocks were thawed in a 37° C. water bath. Cells were washed three times in PBS. The cells were counted and adjusted to 5×10EE3 cells/50 μl (1×10EE5 cells/ml) in Assay Medium. A 50 μl aliquot of cells was transferred to each well in the assay plate.
Stocks of the test compounds and reference compounds were diluted to a concentration of […] in Assay Medium. Compounds were diluted 10-fold to give the following concentrations: 2×10EE-6 M, 2×10EE-7 M, 2×10EE-8 M; 2×10EE-9 M, 2×10EE-10 M, 2×10EE-11 M, 2×10EE-12 M and 2×10EE-13 M. For each compound a blank assay medium control was also included.
A 50 μl aliquot of compound or blank was transferred from the dilution plate to the assay plate. Compounds were tested at the following final concentrations: 1×10EE-6 M, 1×10EE-7 M, 1×10EE-8 M; 1×10EE-9 M, 1×10EE-10 M, 1×10EE-11 M and 1×10EE-12 M and 1×10EE-13 M.
The assay plate was incubated for 3 h in a 5% CO2 incubator at 37° C. The assay plate was removed from the incubator and allowed to stand at room temperature for 15 min. A 100 μl aliquot of steadylite plus reagent was added to each well of the assay plate (reagent is light sensitive). Each assay plate was covered with aluminum foil to protect it from light and shaken for 30 min at room temperature. Each assay plate was read in a Perkin Elmer TopCount NXT instrument.
The data from the TopCount instrument was transferred to GraphPad Prism software. The software performed a non-linear regression (log(agonist) vs response-Variable slope (four parameter)). EC50 values were calculated by the software and reported in pM.

human GLP-1 receptor = biological target: T2, human GLP-1 receptor (Homo sapiens, UniProt P43220); assay: GLP-1 receptor potency, CRE luciferase reporter gene assay in BHK cells; format: cell-based; details: BHK cells expressing human GLP-1 receptor, read-out: EC50 GLP-1R
T2 construct: expressed in transfected cells; host or cells: BHK cells (parent BHKTS13), clone FCW467-12A/KZ10-1, with CRE luciferase
Procedure, shortened: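 BHK cells stably expressing human GLP-1 receptor with CRE-luciferase reporter, 5×10EE3 cells/well in phenol red-free DMEM with 10 mM Hepes, 2% ovalbumin, 0.2% Pluronic F-68. Compounds at final 1×10EE-6 to 1×10EE-13 M, 3 h at 37° C; steadylite luminescence; EC50 by four-parameter fit, in pM.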

T2 sequence (P43220 24-463): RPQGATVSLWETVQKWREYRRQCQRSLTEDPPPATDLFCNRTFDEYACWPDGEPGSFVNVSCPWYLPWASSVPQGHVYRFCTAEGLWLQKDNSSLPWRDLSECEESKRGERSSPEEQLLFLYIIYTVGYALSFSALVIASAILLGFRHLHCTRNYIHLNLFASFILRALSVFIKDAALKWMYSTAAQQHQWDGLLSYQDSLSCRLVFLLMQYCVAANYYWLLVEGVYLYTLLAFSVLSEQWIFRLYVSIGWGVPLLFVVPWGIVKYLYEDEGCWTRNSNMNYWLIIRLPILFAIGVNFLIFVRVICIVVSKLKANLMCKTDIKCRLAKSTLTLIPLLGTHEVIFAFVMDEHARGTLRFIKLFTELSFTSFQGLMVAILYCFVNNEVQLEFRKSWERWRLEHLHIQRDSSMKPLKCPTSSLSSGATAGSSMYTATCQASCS
T1 sequence (P47871 26-477): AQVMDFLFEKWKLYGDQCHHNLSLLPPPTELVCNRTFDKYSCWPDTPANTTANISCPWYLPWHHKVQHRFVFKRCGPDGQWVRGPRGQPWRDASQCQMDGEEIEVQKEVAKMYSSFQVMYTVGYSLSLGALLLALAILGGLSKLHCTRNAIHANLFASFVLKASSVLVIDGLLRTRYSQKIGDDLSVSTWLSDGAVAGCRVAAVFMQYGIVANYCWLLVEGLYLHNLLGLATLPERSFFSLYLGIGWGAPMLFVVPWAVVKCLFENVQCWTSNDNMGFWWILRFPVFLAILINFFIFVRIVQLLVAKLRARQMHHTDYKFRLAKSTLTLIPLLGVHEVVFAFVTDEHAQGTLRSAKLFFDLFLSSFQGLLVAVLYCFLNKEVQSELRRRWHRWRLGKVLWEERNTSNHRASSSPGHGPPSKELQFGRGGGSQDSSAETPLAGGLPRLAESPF

Row | pEC50 (human glucagon receptor) | pEC50 (human GLP-1 receptor) | Compound
1 | 10.35 |  | CC(C)C[C@H](NC(=O)[C@H](Cc1ccc(O)cc1)NC(=O)[C@H](CCCCN)NC(=O)[C@H](CO)NC(=O)[C@H](CC(C)C)NC(=O)[C@H](CC(=O)O)NC(=O)[C@H](CO)NC(=O)[C@@H](NC(=O)[C@H](Cc1ccccc1)NC(=O)[C@@H](NC(=O)CNC(=O)[C@H](CCC(N)=O)NC(=O)C(C)(C)NC(=O)[C@@H](N)Cc1c[nH]cn1)[C@@H](C)O)[C@@H](C)O)C(=O)N[C@@H](CCC(=O)O)C(=O)N[C@@H](CO)C(=O)N[C@@H](CCCCN)C(=O)N[C@@H](CCCNC(=N)N)C(=O)N[C@@H](C)C(=O)N[C@@H](CCCNC(=N)N)C(=O)N[C@@H](CCC(=O)O)C(=O)N[C@@H](Cc1ccccc1)C(=O)N[C@H](C(=O)N[C@@H](CCC(N)=O)C(=O)N[C@@H](Cc1c[nH]c2ccccc12)C(=O)N[C@@H](CC(C)C)C(=O)N[C@@H](CC(C)C)C(=O)N[C@@H](CCCCNC(=O)CNC(=O)[C@H](CO)NC(=O)[C@H](CCC(=O)O)NC(=O)CNC(=O)[C@H](CO)NC(=O)CC[C@H](NC(=O)CC[C@H](NC(=O)CCCCCCCCCCCCCCCCC(=O)O)C(=O)O)C(=O)O)C(=O)N[C@H](C(N)=O)[C@@H](C)O)C(C)C [Example 25, N^ε28-[2-[[(2S)-2-[[(2S)-4-carboxy-2-[[2-[[(2S)-2-[[(4S)-4-carboxy-4-[[(4S)-4-carboxy-4-(17-carboxyheptadecanoylamino)butanoyl]amino]butanoyl]amino]-3-hydroxypropanoyl]amino]acetyl]amino]butanoyl]amino]-3-hydroxypropanoyl]amino]acetyl]-[Aib2,Leu10,Glu15,Lys17,Arg20,Glu21,Leu27,Lys28]-Glucagon amide] (I: H-H[Aib]QGTFTSDLSKYLESKRAREFVQWLLKT-NH2 / II: {C18 diacid-γGlu-γGlu}-SGESG; amide I:28-II:C; N-terminus assumed)
2 | 11.54 |  | CC(C)C[C@H](NC(=O)[C@H](Cc1c[nH]c2ccccc12)NC(=O)[C@H](C)NC(=O)[C@@H](NC(=O)[C@H](Cc1ccccc1)NC(=O)[C@H](CCC(=O)O)NC(=O)[C@H](CCCNC(=N)N)NC(=O)[C@H](C)NC(=O)[C@H](CCCNC(=N)N)NC(=O)[C@H](CCCNC(=N)N)NC(=O)[C@H](CO)NC(=O)[C@H](CCC(=O)O)NC(=O)[C@H](CC(C)C)NC(=O)[C@H](Cc1ccc(O)cc1)NC(=O)[C@H](CCCCN)NC(=O)[C@H](CO)NC(=O)[C@H](CC(C)C)NC(=O)[C@H](CC(=O)O)NC(=O)[C@H](CO)NC(=O)[C@@H](NC(=O)[C@H](Cc1ccccc1)NC(=O)[C@@H](NC(=O)CNC(=O)[C@H](Cc1c[nH]cn1)NC(=O)C(C)(C)NC(=O)[C@@H](N)Cc1c[nH]cn1)[C@@H](C)O)[C@@H](C)O)C(C)C)C(=O)N[C@@H](CC(C)C)C(=O)N[C@@H](CCCCNC(=O)CC[C@H](NC(=O)COCCOCCNC(=O)COCCOCCNC(=O)CC[C@H](NC(=O)CC[C@H](NC(=O)CCCCCCCCCCCCCCCCC(=O)O)C(=O)O)C(=O)O)C(=O)O)C(=O)N[C@H](C(N)=O)[C@@H](C)O [Example 31, N^ε28-[(4S)-4-carboxy-4-[[2-[2-[2-[[2-[2-[2-[[(4S)-4-carboxy-4-[[(4S)-4-carboxy-4-(17-carboxyheptadecanoylamino)butanoyl]amino]butanoyl]amino]ethoxy]ethoxy]acetyl]amino]ethoxy]ethoxy]acetyl]amino]butanoyl]-[Aib2,His3,Leu10,Glu15,Arg20,Glu21,Ala24,Leu27, Lys28]-Glucagon amide] (H-H[Aib]HGTFTSDLSKYLESRRAREFVAWLLK([γGlu-AEEA-AEEA-γGlu-γGlu-C18 diacid])T-NH2; N-terminus assumed)
3 |  | 11.30 | CC(C)C[C@H](NC(=O)[C@H](Cc1ccc(O)cc1)NC(=O)[C@H](CCCCN)NC(=O)[C@H](CO)NC(=O)[C@H](CC(C)C)NC(=O)[C@H](CC(=O)O)NC(=O)[C@H](CO)NC(=O)[C@@H](NC(=O)[C@H](Cc1ccccc1)NC(=O)[C@@H](NC(=O)CNC(=O)[C@H](CCC(N)=O)NC(=O)C(C)(C)NC(=O)[C@@H](N)Cc1c[nH]cn1)[C@@H](C)O)[C@@H](C)O)C(=O)N[C@@H](CC(=O)O)C(=O)N[C@@H](C)C(=O)N[C@@H](CCCNC(=N)N)C(=O)N[C@@H](CCCNC(=N)N)C(=O)N[C@@H](C)C(=O)N[C@@H](CCCNC(=N)N)C(=O)N[C@@H](CC(=O)O)C(=O)N[C@@H](Cc1ccccc1)C(=O)N[C@H](C(=O)N[C@@H](CCC(N)=O)C(=O)N[C@@H](Cc1c[nH]c2ccccc12)C(=O)N[C@@H](CC(C)C)C(=O)N[C@@H](CC(C)C)C(=O)N[C@@H](CO)C(=O)N[C@@H](CCCCNC(=O)CC[C@H](NC(=O)CC[C@H](NC(=O)COCCOCCNC(=O)COCCOCCNC(=O)CC[C@H](NC(=O)CCCCCCCCCCCCCCCCC(=O)O)C(=O)O)C(=O)O)C(=O)O)C(N)=O)C(C)C [Example 66, N^ε29-[(4S)-4-carboxy-4-[[(4S)-4-carboxy-4-[[2-[2-[2-[[2-[2-[2-[[(4S)-4-carboxy-4-(17-carboxyheptadecanoylamino)butanoyl]amino]ethoxy]ethoxy]acetyl]amino]ethoxy]ethoxy]acetyl]amino]butanoyl]amino]butanoyl]-[Aib2,Leu10,Ala16,Arg20,Leu27,Ser28,Lys29]-Glucagon amide] (H-H[Aib]QGTFTSDLSKYLDARRARDFVQWLLSK([γGlu-γGlu-AEEA-AEEA-γGlu-C18 diacid])-NH2; N-terminus assumed)
4 |  | 11.15 | CC(C)C[C@H](NC(=O)[C@H](Cc1ccc(O)cc1)NC(=O)[C@H](CCCCN)NC(=O)[C@H](CO)NC(=O)[C@H](CC(C)C)NC(=O)[C@H](CC(=O)O)NC(=O)[C@H](CO)NC(=O)[C@@H](NC(=O)[C@H](Cc1ccccc1)NC(=O)[C@@H](NC(=O)CNC(=O)[C@H](CCC(N)=O)NC(=O)C(C)(C)NC(=O)[C@@H](N)Cc1c[nH]cn1)[C@@H](C)O)[C@@H](C)O)C(=O)N[C@@H](CCC(=O)O)C(=O)N[C@@H](CO)C(=O)N[C@@H](CCCCN)C(=O)N[C@@H](CCCNC(=N)N)C(=O)N[C@@H](C)C(=O)N[C@@H](CCCNC(=N)N)C(=O)N[C@@H](CO)C(=O)N[C@@H](Cc1ccccc1)C(=O)N[C@H](C(=O)N[C@@H](CCC(N)=O)C(=O)N[C@@H](Cc1c[nH]c2ccccc12)C(=O)N[C@@H](CC(C)C)C(=O)N[C@@H](CC(C)C)C(=O)N[C@@H](CCCCNC(=O)CC[C@H](NC(=O)CC[C@H](NC(=O)[C@H](CO)NC(=O)[C@H](CCC(=O)O)NC(=O)[C@H](CO)NC(=O)CC[C@H](NC(=O)CC[C@H](NC(=O)CCCCCCCCCCCCCCCCC(=O)O)C(=O)O)C(=O)O)C(=O)O)C(=O)O)C(=O)N[C@H](C(N)=O)[C@@H](C)O)C(C)C [Example 69, N^ε28-[(4S)-4-carboxy-4-[[(4S)-4-carboxy-4-[[(2S)-2-[[(2S)-4-carboxy-2-[[(2S)-2-[[(4S)-4-carboxy-4-[[(4S)-4-carboxy-4-(17-carboxyheptadecanoylamino)butanoyl]amino]butanoyl]amino]-3-hydroxypropanoyl]amino]butanoyl]amino]-3-hydroxypropanoyl]amino]butanoyl]amino]butanoyl]-[Aib2,Leu10,Glu15,Lys17,Arg20,Ser21,Leu27,Lys28]-Glucagon amide] (H-H[Aib]QGTFTSDLSKYLESKRARSFVQWLLK([γGlu-γGlu-Ser-Glu-Ser-γGlu-γGlu-C18 diacid])T-NH2; N-terminus assumed)
